The molecules below were run against T1, histamine 3 receptor (H3R), human HR3-CHO membranes (Homo sapiens, UniProt Q9Y5N1) (assay: Competition binding assay with 3H-(R)α-methylhistamine on membranes of the human HR3-CHO cell line). Details: displacement of 3H-(R)α-methylhistamine (1 nM), membrane of human HR3-CHO cell line; Ki calculated from IC50 by Cheng-Prusoff.
T1 construct: expressed in transfected cells; host or cells: CHO cells (HR3-CHO cell line), membrane preparation
Description: Binding Assay with ^3H-(R)α-methylhistamine
Saturation binding experiments were performed using HR3-CHO membranes prepared as described in Takahashi, K, Tokita, S., Kotani, H. (2003) J. Pharmacol. Exp. Therapeutics 307, 213-218.
An appropriate amount of membrane (60 to 80 μg protein/well) was incubated with increasing concentrations of ^3H(R)α-Methylhistamine di-hydrochloride (0.10 to 10 nM). Non specific binding was determined using a 200 fold excess of cold (R)(X-Methylhistamine dihydrobromide (500 nM final concentration). The incubation was carried out at room temperature (in deep-well plates shaking for three hours). The final volume in each well was 250 pt. The incubation was followed by rapid filtration on GF/B filters (pre-soaked with 100 W of 0.5% PEI in Tris 50 mM shaking at 200 rpm for two hours). The filtration was made using a cell-harvester and the filter plates were then washed five times with ice cold washing buffer containing 0.5 M NaCl. After harvesting, the plates were dried at 55° C. for 60 min, then we added scintillation fluid (Microscint 40, 40 microl in each well) and the amount of radioactivity on the filter was determined in Packard top-counter after shaking the plates for two hours at 200 rpm at room temperature.
Binding Buffer: 50 mM Tris-HCl pH 7.4 and 5 mM MgCl2×6H2O pH 7.4. Washing Buffer: 50 mM Tris-HCl pH 7.4 and 5 mM MgCl2x6H2O and 0.5 M NaCl pH 7.4.
Indirect measurement of affinity of H3R inverse agonists: twelve increasing concentrations (ranging from 10 μM to 0.3 nM) of the selected compounds were always tested in competition binding experiments using membrane of the human HR3-CHO cell line. An appropriate amount of protein, e.g. approximately 500 cpm binding of RAMH at Kd, were incubated for 1 hour at room temperature in 250 μl final volume in 96-well plates in presence of ^3H(R)α-Methylhistamine (1 nM final concentration=Kd). […]
All compounds were tested at a single concentration in duplicates. […] Ki's were calculated from IC50 based on Cheng-Prusoff equation (Cheng, Y, Prusoff, W H (1973) Biochem Pharmacol 22, 3099-3108).

T1 sequence (Q9Y5N1 whole entry): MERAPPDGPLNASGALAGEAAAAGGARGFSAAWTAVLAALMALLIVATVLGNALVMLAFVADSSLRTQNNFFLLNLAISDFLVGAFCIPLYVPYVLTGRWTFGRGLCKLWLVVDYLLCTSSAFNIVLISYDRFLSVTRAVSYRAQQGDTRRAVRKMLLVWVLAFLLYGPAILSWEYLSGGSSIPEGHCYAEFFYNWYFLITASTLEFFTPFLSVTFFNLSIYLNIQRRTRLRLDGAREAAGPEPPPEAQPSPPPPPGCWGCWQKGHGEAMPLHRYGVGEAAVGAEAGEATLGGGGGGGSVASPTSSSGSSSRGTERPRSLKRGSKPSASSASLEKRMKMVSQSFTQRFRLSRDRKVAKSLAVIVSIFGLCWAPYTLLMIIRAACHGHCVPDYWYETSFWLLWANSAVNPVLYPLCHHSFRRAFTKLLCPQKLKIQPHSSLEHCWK

Row | Ki [nM] | SMILES
1 | 200 | CC(C)N1CCC(Oc2ccc3nc(C(=O)N4CC=CC4)ccc3c2)CC1 [Example 2, (2,5-dihydro-pyrrol-1-yl)-[6-(1-isopropyl-piperidin-4-yloxy)-quinolin-2-yl]-methanone]
2 | 78 | CC(C)N1CCC(Oc2ccc3nc(C(=O)N4CCC4)ccc3c2)CC1 [Example 14, azetidine-1-yl-[6-(1-isopropyl-piperidin-4-yloxy)-quinolin-2-yl]-methanone]
3 | 450 | O=C(c1ccc2cc(OCCCN3CCCCC3)ccc2n1)N1CCCC1 [Example 64, [6-(3-piperidin-1-yl-propoxy)-quinolin-2-yl]-pyrrolidin-1-yl-methanone]
